5 compounds from US11524942B2, “Metabolites of [3-(4-{2-butyl-1-[4-(4-chloro-phenoxy)-phenyl]-1H-imidazol-4 yl}-phenoxy)-propyl]-diethyl-amine” (vTv Therapeutics LLC, priority 2018, dated 2022) can be followed below.

SMILES strings stand for the structures.

In the test the target is human sRAGE (the soluble extracellular domain of the human receptor for advanced glycation endproducts) (Homo sapiens (Human), UniProt Q15109). Briefly: Microscale thermophoresis binding affinity to recombinant human sRAGE. The note with it: 25° C., pH 7.5. The procedure: Around 5 nM sRAGE was subsequently added to compounds at concentrations from 600 nM to 20 pM and incubated for 5 minutes at 25° C. in buffer containing 25 mM Hepes (pH 7.5), 5 mM CaCl2), 5 mM MgCl2, 50 mM NaCl, 0.05% Tween20 and 1% DMSO before proceeding to microscale thermophoresis.
human sRAGE (the soluble extracellular domain of the human receptor for advanced glycation endproducts), sequence (Q15109 23-342): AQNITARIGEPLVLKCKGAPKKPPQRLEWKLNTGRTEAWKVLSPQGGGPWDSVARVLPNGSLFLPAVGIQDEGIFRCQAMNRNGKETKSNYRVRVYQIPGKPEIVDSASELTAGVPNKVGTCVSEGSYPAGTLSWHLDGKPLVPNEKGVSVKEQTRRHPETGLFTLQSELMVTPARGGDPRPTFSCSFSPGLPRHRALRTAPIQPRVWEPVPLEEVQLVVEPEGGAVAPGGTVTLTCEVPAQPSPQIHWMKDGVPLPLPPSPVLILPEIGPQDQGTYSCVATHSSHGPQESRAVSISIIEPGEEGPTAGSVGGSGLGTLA
The raw thermophoresis data and average Kds were generated according to manufacturer's protocol using the Microscale Thermophoresis System analysis software.
Usually Kd stands for the concentration at which binding is half-saturated. Regarding `CCCCc1nc(-c2ccc(OCCCN(CC)CC)cc2)cn1-c1ccc(Oc2ccc(Cl)c(O)c2)cc1` [Metabolite M6, 5-[4-[2-butyl-4-[4-[3-(diethylamino)propoxy]phenyl]imidazol-1-yl]phenoxy]-2-chloro-phenol], the Kd is 9.8 nM.

On to `CCCCc1nc(-c2ccc(OCCC(=O)O)cc2)cn1-c1ccc(Oc2ccc(Cl)cc2)cc1` [Metabolite M1, 3-(4-{2-Butyl-1-[4-(4-chloro-phenoxy)-phenyl]-1H-imidazol-4-yl}-phenoxy)-propionic acid], for which the dissociation constant (Kd) came out at 219 nM.

In the case of `CCCCc1nc(-c2ccc(O)cc2)cn1-c1ccc(Oc2ccc(Cl)cc2)cc1` [Metabolite M3, 4-{2-butyl-1-[4-(4-chloro-phenoxy)-phenyl]-1H-imidazol-4-yl}-phenol], the equilibrium dissociation constant (Kd) came out at 257 nM.

Regarding `CCCCc1nc(-c2ccc(OCCCN(CC)CC)cc2)cn1-c1ccc(Oc2ccc(Cl)cc2O)cc1` [Metabolite M5, 2-[4-[2-butyl-4-[4-[3-(diethylamino)propoxy]phenyl]imidazol-1-yl]phenoxy]-5-chloro-phenol], the dissociation constant Kd is 9.7 nM.

For the compound `CCCCc1nc(-c2ccc(OCCCO)cc2)cn1-c1ccc(Oc2ccc(Cl)cc2)cc1` [Metabolite M7, 3-(4-{2-Butyl-1-[4-(4-chloro-phenoxy)-phenyl]-1H-imidazol-4-yl}-phenoxy)-propan-1-ol], the dissociation constant (Kd) came to 99.8 nM.
